Molecular target: T1, human PDE10A enzyme (Homo sapiens, UniProt Q9Y233)
T1 construct: Human PDE10A full-length gene was transfected into Sf9 or COS-7 cells; His-tag; made in house; host or cells: Sf9 or COS-7 cells
Assay: PDE10A enzyme activity inhibition test (SPA)
Type: biochemical
Settings: compound 1 μM, substrate [3H]cGMP, 60 min at room temperature, read-out: inhibition rate (%) (1 μM)
Experimental: Human PDE10A full-length gene was transfected into Sf9 or COS-7 cells. The cells were disrupted and centrifuged, and human PDE10A enzyme was obtained from the residue. The enzyme extracted from Sf9 cells was partially purified using His-tag affinity column. The enzyme was stored at −70° C. until use. The PDE activity was measured using an SPA (Scintillation Proximity Assay) (GE Healthcare). To measure the inhibitory activity of the compound, 10 μL of serially diluted compound was reacted with 20 μL of PDE enzyme in an assay buffer (50 mM HEPES-NaOH, 8.3 mM MgCl2, 1.7 mM EGTA, 0.1% BSA (pH 7.4)) […] at room temperature. The final concentration of DMSO in the reaction mixture was 1 percent. The compounds were evaluated in duplicate in 96-well half-area plates (Corning). To start the reaction, 10 μL of substrate [^3H] cGMP (25 and 50 nM; GE Healthcare and PerkinElmer, respectively) was added to 40 μL. After 60 min of reaction at room temperature, yttrium SPA beads containing zinc sulphate were added (6 mg/mL, 20 μL) to terminate the reaction. After standing still for 1 hr, the measurement was performed using a scintillation counter (PerkinElmer) and the inhibition rate was calculated. The inhibition rate was calculated based on the control containing enzyme and DMSO as 0% and the control without enzyme as 100%.

T1 sequence (Q9Y233 267-1055): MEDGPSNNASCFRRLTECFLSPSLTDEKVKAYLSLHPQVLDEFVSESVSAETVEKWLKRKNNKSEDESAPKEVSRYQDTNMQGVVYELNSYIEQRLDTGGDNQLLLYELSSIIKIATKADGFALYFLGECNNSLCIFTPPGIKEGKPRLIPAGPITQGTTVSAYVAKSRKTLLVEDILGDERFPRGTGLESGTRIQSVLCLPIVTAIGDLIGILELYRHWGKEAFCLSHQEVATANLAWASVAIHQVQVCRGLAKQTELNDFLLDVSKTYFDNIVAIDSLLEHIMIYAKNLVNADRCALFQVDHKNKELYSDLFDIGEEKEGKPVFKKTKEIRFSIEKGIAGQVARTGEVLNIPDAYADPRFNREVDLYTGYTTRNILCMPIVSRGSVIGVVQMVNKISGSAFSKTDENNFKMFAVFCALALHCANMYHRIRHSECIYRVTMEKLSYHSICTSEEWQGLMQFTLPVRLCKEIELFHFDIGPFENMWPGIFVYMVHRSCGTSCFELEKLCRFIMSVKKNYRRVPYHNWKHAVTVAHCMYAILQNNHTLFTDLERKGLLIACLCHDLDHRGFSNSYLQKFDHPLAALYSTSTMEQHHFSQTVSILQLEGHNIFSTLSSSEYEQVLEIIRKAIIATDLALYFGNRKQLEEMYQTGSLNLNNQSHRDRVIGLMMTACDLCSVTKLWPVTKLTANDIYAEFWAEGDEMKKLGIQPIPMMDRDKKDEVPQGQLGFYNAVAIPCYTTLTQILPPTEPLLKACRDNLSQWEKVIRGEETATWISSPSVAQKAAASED

SMILES | inhibition at 1 µM [%]
Cn1cc(OCCCc2nc3ccccc3n2C)c(=O)c(-c2ccnn2-c2ccccc2)n1 [Example 1, 1-methyl-5-[3-(1-methyl-1H-benzimidazol-2-yl)propoxy]-3-(1-phenyl-1H-pyrazol-5-yl)pyridazin-4(1H)-one] | 96
Cn1cc(OCCN2CCn3c2nc2ccccc23)c(=O)c(-c2ccnn2-c2ccccc2)n1 [Example 2, 5-[2-(2,3-dihydro-1H-imidazo[1,2-a]benzimidazol-1-yl)ethoxy]-1-methyl-3-(1-phenyl-1H-pyrazol-5-yl)pyridazin-4(1H)-one] | 101
Cn1c(CCCOc2cn(CC3CC3)nc(-c3ccnn3-c3ccccc3)c2=O)nc2ccccc21 [Example 3, 1-(cyclopropylmethyl)-5-[3-(1-methyl-1H-benzimidazol-2-yl)propoxy]-3-(1-phenyl-1H-pyrazol-5-yl)pyridazin-4(1H)-one] | 98
O=c1c(OCCN2CCn3c2nc2ccccc23)cn(CC2CC2)nc1-c1ccnn1-c1ccccc1 [Example 4, 1-(cyclopropylmethyl)-5-[2-(2,3-dihydro-1H-imidazo[1,2-a]benzimidazol-1-yl)ethoxy]-3-(1-phenyl-1H-pyrazol-5-yl)pyridazin-4(1H)-one] | 100
Cn1nccc1-c1nn(-c2ccccc2)cc(OCCCc2nc3ccccc3n2C)c1=O [Example 5, 5-[3-(1-methyl-1H-benzimidazol-2-yl)propoxy]-3-(1-methyl-1H-pyrazol-5-yl)-1-phenylpyridazin-4(1H)-one] | 95.4
Cn1nccc1-c1nn(-c2ccccc2)cc(OCCN2CCn3c2nc2ccccc23)c1=O [Example 6, 5-[2-(2,3-dihydro-1H-imidazo[1,2-a]benzimidazol-1-yl)ethoxy]-3-(1-methyl-1H-pyrazol-5-yl)-1-phenylpyridazin-4(1H)-one] | 97.2
Cn1nccc1-c1nn(-c2ccccc2)cc(OCCc2ccc3ccccc3n2)c1=O [Example 7, 3-(1-methyl-1H-pyrazol-5-yl)-1-phenyl-5-(2-quinolin-2-ylethoxy)pyridazin-4(1H)-one] | 96.8
Cn1nccc1-c1nn(-c2ccccc2)cc(OCc2ccc3ccccc3n2)c1=O [Example 8, 3-(1-methyl-1H-pyrazol-5-yl)-1-phenyl-5-(quinolin-2-ylmethoxy)pyridazin-4(1H)-one] | 68.4
O=c1cnn(-c2cccc(C(F)(F)F)c2)cc1OCc1ccc2ccccc2n1 [Example 9, 5-(quinolin-2-ylmethoxy)-1-[3-(trifluoromethyl)phenyl]pyridazin-4(1H)-one] | 6.5
Cn1cc(OCCOc2nc3ccccc3n2C)c(=O)c(-c2ccnn2-c2ccccc2)n1 [Example 10, 1-methyl-5-{2-[(1-methyl-1H-benzimidazol-2-yl)oxy]ethoxy}-3-(1-phenyl-1H-pyrazol-5-yl)pyridazin-4(1H)-one] | 95
Cn1cc(OCCCc2cn3ccccc3n2)c(=O)c(-c2ccnn2-c2ccccc2)n1 [Example 11, 5-(3-imidazo[1,2-a]pyridin-2-ylpropoxy)-1-methyl-3-(1-phenyl-1H-pyrazol-5-yl)pyridazin-4(1H)-one] | 100
Cn1cc(OCCCc2nc3cccnc3n2C)c(=O)c(-c2ccnn2-c2ccccc2)n1 [Example 12, 1-methyl-5-[3-(3-methyl-3H-imidazo[4,5-b]pyridin-2-yl)propoxy]-3-(1-phenyl-1H-pyrazol-5-yl)pyridazin-4(1H)-one] | 102
Cn1c(CCCOc2cn(CC3CC3)nc(-c3ccnn3-c3ccccc3)c2=O)nc2cccnc21 [Example 13, 1-(cyclopropylmethyl)-5-[3-(3-methyl-3H-imidazo[4,5-b]pyridin-2-yl)propoxy]-3-(1-phenyl-1H-pyrazol-5-yl)pyridazin-4(1H)-one] | 100
Cn1c(OCCOc2cn(CC3CC3)nc(-c3ccnn3-c3ccccc3)c2=O)nc2ccccc21 [Example 14, 1-(cyclopropylmethyl)-5-{2-[(1-methyl-1H-benzimidazol-2-yl)oxy]ethoxy}-3-(1-phenyl-1H-pyrazol-5-yl)pyridazin-4 (H)-one] | 98
O=c1c(OCCOc2ccc3ccccc3n2)cn(CC2CC2)nc1-c1ccnn1-c1ccccc1 [Example 15, 1-(cyclopropylmethyl)-3-(1-phenyl-1H-pyrazol-5-yl)-5-[2-(quinolin-2-yloxy)ethoxy]pyridazin-4(1H)-one] | 13
O=c1c(OCCCc2cn3ccccc3n2)cn(CC2CC2)nc1-c1ccnn1-c1ccccc1 [Example 16, 1-(cyclopropylmethyl)-5-(3-imidazo[1,2-a]pyridin-2-ylpropoxy)-3-(1-phenyl-1H-pyrazol-5-yl)pyridazin-4(1H)-one] | 98
O=c1c(OCc2ccc3ccccc3n2)cn(CC2CC2)nc1-c1ccnn1-c1ccccc1 [Example 17, 1-(cyclopropylmethyl)-3-(1-phenyl-1H-pyrazol-5-yl)-5-(quinolin-2-ylmethoxy)pyridazin-4(1H)-one] | 60
O=c1c(OCc2ccc3cccnc3c2)cn(CC2CC2)nc1-c1ccnn1-c1ccccc1 [Example 18, 1-(cyclopropylmethyl)-3-(1-phenyl-1H-pyrazol-5-yl)-5-(quinolin-7-ylmethoxy)pyridazin-4(1H)-one] | 20
O=c1c(OCCn2ccn3ccnc23)cn(CC2CC2)nc1-c1ccnn1-c1ccccc1 [Example 19, 1-(cyclopropylmethyl)-5-[2-(1H-imidazo[1,2-a]imidazol-1-yl)ethoxy]-3-(1-phenyl-1H-pyrazol-5-yl)pyridazin-4(1H)-one] | 94
Cn1c(CCCOc2cn(C3CCC3)nc(-c3ccnn3-c3ccccc3)c2=O)nc2ccccc21 [Example 20, 1-cyclobutyl-5-[3-(1-methyl-1H-benzimidazol-2-yl)propoxy]-3-(1-phenyl-1H-pyrazol-5-yl)pyridazin-4(1H)-one] | 99
Cn1c(CCCOc2cn(C3CCC3)nc(-c3ccnn3-c3ccccc3)c2=O)nc2cccnc21 [Example 21, 1-cyclobutyl-5-[3-(3-methyl-3H-imidazo[4,5-b]pyridin-2-yl)propoxy]-3-(1-phenyl-1H-pyrazol-5-yl)pyridazin-4 (H)-one] | 107
O=c1c(OCCN2CCn3c2nc2ccccc23)cn(C2CCC2)nc1-c1ccnn1-c1ccccc1 [Example 22, 1-cyclobutyl-5-[2-(2,3-dihydro-1H-imidazo[1,2-a]benzimidazol-1-yl)ethoxy]-3-(1-phenyl-1H-pyrazol-5-yl)pyridazin-4 (H)-one] | 98
Cn1c(OCCOc2cn(C3CCC3)nc(-c3ccnn3-c3ccccc3)c2=O)nc2ccccc21 [Example 23, 1-cyclobutyl-5-{2-[(1-methyl-1H-benzimidazol-2-yl)oxy]ethoxy}-3-(1-phenyl-1H-pyrazol-5-yl)pyridazin-4(1H)-one] | 100
O=c1c(OCCCc2cn3ccccc3n2)cn(C2CCC2)nc1-c1ccnn1-c1ccccc1 [Example 24, 1-cyclobutyl-5-(3-imidazo[1,2-a]pyridin-2-ylpropoxy)-3-(1-phenyl-1H-pyrazol-5-yl)pyridazin-4(1H)-one] | 100
Cn1c(CCCOc2cn(CC(F)(F)F)nc(-c3ccnn3-c3ccccc3)c2=O)nc2ccccc21 [Example 25, 5-[3-(1-methyl-1H-benzimidazol-2-yl)propoxy]-3-(1-phenyl-1H-pyrazol-5-yl)-1-(2,2,2-trifluoroethyl)pyridazin-4(1H)-one] | 96
Cn1c(CCCOc2cn(CC(F)(F)F)nc(-c3ccnn3-c3ccccc3)c2=O)nc2cccnc21 [Example 26, 5-[3-(3-methyl-3H-imidazo[4,5-b]pyridin-2-yl)propoxy]-3-(1-phenyl-1H-pyrazol-5-yl)-1-(2,2,2-trifluoroethyl)pyridazin-4(1H)-one] | 101
O=c1c(OCCN2CCn3c2nc2ccccc23)cn(CC(F)(F)F)nc1-c1ccnn1-c1ccccc1 [Example 27, 5-[2-(2,3-dihydro-1H-imidazo[1,2-a]benzimidazol-1-yl)ethoxy]-3-(1-phenyl-1H-pyrazol-5-yl)-1-(2,2,2-trifluoroethyl)pyridazin-4(1H)-one] | 98

Source: US8883788B2, “Fused heterocyclic ring compound” (Takeda Pharmaceutical Company Limited, priority 2010, dated 2014)
